US5789444A, “Method of reducing glutamate neurotoxicity with anthranilic acid derivatives” (Washington University, priority 1996, dated 1998)
Entries after “also recorded” stand apart in the source; their conditions may differ.

Experiments:
[1] = system: NMDA-induced neurotoxicity, mouse cortical cultures; assay: NMDA-mediated excitotoxicity in mixed cortical cultures (neuronal injury by LDH release); format: cell-based
Description: (§1) Cell Culture: Mixed cortical cultures containing both neuronal and glial elements were prepared from fetal mice at 15 day gestation as previously described (Hewett et al., 1993). Glia were plated in Primaria (Falcon) 15 mm multiwell vessels in modified Eagle's medium (MEM, Earle's salts), with 2 mM glutamine, 25 mM glucose, 10% fetal bovine serum, 10% horse serum, and 10 ng/ml epidermal growth factor. Dissociated cortical cells were plated (2.75 hemispheres/10 ml/plate) in a similar medium (with only 5% fetal bovine serum and 5% horse serum) on an established bed of glia (15-30 days in vitro). All cultures were kept at 37° C. in a humidified 5% CO2 -containing atmosphere. After 3-7 days in vitro, glial cell division was halted by 2 days of exposure to 10 μM cytosine arabinoside. Cells were subsequently shifted into maintenance medium which was identical to the plating medium, but lacked fetal bovine serum. The medium was changed twice weekly. Experiments were performed on cortical cultures after 14 days in vitro.
Drug Exposure: Cells were exposed to NMDA for 5 min either alone or in the presence of test compound at room temperature in a HEPES controlled salt solution (HCSS), containing (mM): NaCl, 120; KCl, 5.4; MgCl2, 0.8; CaCl2, 1.8; HEPES, 20; glucose, 15, and glycine, 0.01 (pH 7.4). The exposure solution was then washed away and replaced by MEM (Earle's salts) supplemented with glycine (0.01 mM) and the cells returned to the incubator for 20-24 hr.
Since the neurotoxicity of NMDA preparations can vary from lot to lot, the concentration of NMDA used was determined empirically in a separate benchmarking test. Cells were exposed as described above to increasing concentrations of NMDA, and neuronal injury is assessed as described below. A dose/response curve is plotted, and a concentration which induces death in 50-70% of the neuronal population after 24 hours is used as the test concentration for evaluating compounds as neuroprotective drugs.
Assessment of Neuronal Cell Injury: Neuronal cell death was estimated by examination of cultures under phase-contrast microscopy, and quantified by measurement of lactate dehydrogenase (LDH) released by damaged or destroyed cells into the bathing medium one day following experimentation (Koh, J. Y. and Choi, D. W., 1987). The LDH signal corresponding to near-complete neuronal death was determined by assaying the supernatant of sister cultures which were exposed to 500 μM NMDA for 24 hr in MEM supplemented with 10 μM glycine. Background LDH levels (generally <15% of total neuronal) were determined in sister cultures subjected to sham wash and subtracted from the levels in experimental conditions to yield the LDH signal specific to experimental injury.
Mouse cortical cultures were exposed for 5 min to NMDA (100 μM) alone or in the presence of increasing concentrations of meclofenamate sodium, as described under Experimental Procedures, above. Values represent the mean LDH±SEM (n=5-7) scaled to the mean LDH found in control injury (=100).
Mouse cortical cultures were exposed, as described in Example 1, for 5 min to solutions containing increasing concentrations of NMDA or NMDA plus 300 μM meclofenamate. LDH activity was assessed 20-24 hr later. Data are expressed as the percentage of total LDH released (mean ±SEM; n=10). Total LDH was determined by assaying the supernatant of sister cultures which were incubated with 500 μM NMDA for 24 hr. An asterisk indicates difference form untreated controls as determined by repeated measures Analysis of Variance ("ANOVA") followed by Bonferroni's t-test for multiple comparisons (p<0.01).
Cells were exposed to NMDA (100-200 μM) (as described previously) both in the presence and absence of cyclooxygenase/lipooxygenase inhibitors. Data represents the mean LDH±SEM scaled to the mean LDH found in control injury (NMDA alone=100). Data were analyzed via ANOVA followed by Dunnett's t-test for multiple comparisons.

[2] = system: NMDA-induced 45Ca2+ influx; assay: 45Ca2+ accumulation during NMDA exposure in cortical cultures; format: cell-based, mouse; conditions: NMDA 300 μM, 5 min, increasing concentrations, n=18, FIG. 4
Description: ^45 Ca^2 + accumulation: Mouse cortical cultures were washed with HCSS and then exposed to NMDA (300 μM) alone or in the presence of increasing concentrations of meclofenamate in HCSS containing a trace amount of ^45 Ca^2+ (0.5 μCi/well; NEN, Boston, Mass.). After 5 min the exposure solution was washed out with four rinses of HCSS (750 μl each) and the cells were lysed by addition of 0.2% sodium dodecyl sulfate (SDS) at 37° C. An aliquot of cell lysate was estimated by β-counting.
Mouse cortical cultures were exposed, as in Example 1, for 5 min to NMDA (300 μM) alone or NMDA plus increasing concentrations of meclofenamate in the presence of extracellular ^45 Ca^2+. Values are expressed as mean ±SEM (n=18).

lipid catabolism = conditions: known; cited from earlier work
[3] = system: voltage-gated calcium channels; assay: KCl-stimulated influx of calcium (fura-2 fluorescence videomicroscopy); format: cell-based, mouse; conditions: meclofenamate 300 μM, 60 mM KCl, 5 min; FIG. 5
Description: as §1, with “The medium was changed twice weekly. Experiments were performed on cortical cultures after 14 days in vitro.” left out
Cytosolic Calcium Measurements: Intracellular free calcium was measured using fura-2 fluorescence videomicroscopy. […] Background fluorescence was measured from a cell free region of the coverslip at the end of each experiment and subtracted from each 340 and 380 image. […]
Cells were exposed for 5 minutes, as in Example 1, to 60 mM KCl in the presence and absence of meclofenamate (300 μM). Intracellular free calcium [Ca^2 +]i was measured using fura-2 fluorescence videomicroscopy.

NMDA receptor = assay: Whole-cell recording of NMDA current in cortical neurons; format: cell-based, mouse
Description: Electrophysiological Recording: NMDA current was recorded at room temperature (25° C.) from DIV 12-20 cortical neurons plated on 35 mm dishes using whole-cell recording (EPC-7, List-Electronic, Germany) under voltage clamp. The data acquisition program, PULSE (HEKA Electronic, Germany), was used to control the voltage clamp, to monitor and to collect current and voltage data on a Macintosh computer (Quatra 950, Apple Computer Corp., USA). The extracellular solution contained (mM): NaCl, 145; KCl, 3; MnCl2, 2; CaCl2, 2; glycine, 0.01; HEPES, 10; TTX, 0.005 and glucose, 5. The recording electrode's internal solution contained (mM) CsCl, 150, ATP-Na, 2, BAPTA, 0.5 and HEPES, 10. All solutions were adjusted to pH 7.3 by Tris buffer. NMDA (100 μM) in the extracellular solution was delivered to the cell by a multi-channel DAD drug delivery system (Adams and List Inc., New York.) To eliminate dilution of drug, meclofenamate was added to the bath medium and NMDA was delivered in an extracellular solution containing the same concentration of drug.
Ten min prior to NMDA (100 μM) application, mouse cortical cells were treated with 300 μM meclofenamate. NMDA current was recorded using whole cell recording techniques. To eliminate dilution of drug, NMDA was delivered to the cell in a solution containing the same concentration of drug as that in the bath.

[4] = system: focal cerebral ischemia, Long Evans male rats; assay: Induced focal cerebral ischemia (MCAO) with reperfusion, cortical infarct volume; format: in vivo, rat
Description: Surgical MCAO occlusion: Focal cerebral ischemia, confined to the cerebral cortex in the right middle cerebral artery territory (MCA) of Long Evans male rats (250-350 g; Charles Rivers, Wilmington, Del.), was induced by temporary ligation of the MCA and both common carotid arteries (CCAs) as described by Chen et al., 1986. The rectal temperature was monitored and maintained at 37.0°±0.5° C. via an electronic temperature controller (Versa-Therm 2156, Cole-Parmer, Chicago, Ill.) linked to a heating lamp. Physiological parameters including plasma blood glucose, arterial blood pressure, and pulse rate were monitored as described previously and maintained within normal range (Liu et al, 1989). Reperfusion was initiated by releasing arterial occlusion affecting all 3 vessels after 90 min of ischemia. Restoration of blood flow in all three arteries was observed directly under the microscope. Rats were treated i.p. with vehicle (control) or meclofenamate (10 mg/kg, i.p.) 15 min before ischemia.. The cortical infarct volume was morphometrically measured after triphenyl tetrazolium chloride stain 24 hr after MCAO.
31 rats underwent middle cerebral artery occlusion (MCAO) followed by reperfusion. Fourteen rats underwent MCAO alone while 17 rats were given intraperitoneal meclofenamate (10 mg/kg) 15 minutes prior to 90 min MCAO.

[5] = system: cyclooxygenase and lipoxygenase metabolites; assay: RIA measurements of lipid breakdown products following NMDA exposure; format: cell-based; conditions: data not shown
[6] = system: lipoxygenase/cyclooxygenase; conditions: conclusion of prior studies; cited from earlier work
[7] = Mus musculus, compound 300 μM, NMDA 100-200 μM, mean LDH±SEM, asterisk = significantly different from control, read-out: LDH, % of control (NMDA alone=100)

CCCCCCCCC#CCC#CCC#CCCCC(=O)O [ETI]
LDH, % of control (NMDA alone=100) ([1]; compound 300 μM, NMDA 100-200 μM, mean LDH±SEM, asterisk = significantly different from control): 107 ± 13.0%

CCCCCC#CCC#CCC#CCC#CCCCC(=O)O [ETYA]
activity at 300 µM [1, 7]: 85.1 ± 6.2%

O=c1ccc2cc(O)c(O)cc2o1 [Esculetin]
activity at 300 µM [1, 7]: 117 ± 17.1%

Cc1ccc(Cl)c(Nc2ccccc2C(=O)O)c1Cl [Meclofenamate]
NMDA-induced 45Ca2+ influx / uptake [2]: did not significantly affect uptake at any concentration tested | NMDA-induced 45Ca2+ influx / uptake ([2]; listed as meclofenamate): not significantly altered | inhibition of lipid catabolism (lipid catabolism): inhibitor of lipid catabolism | activity at 300 µM [1, 7]: 10.8 ± 5.1% | neuronal injury (LDH release) ([1]; given at the same time as NMDA (100 μM, 5 min), increasing concentrations, FIG. 1): dose-dependently decreased neuronal injury | protective effect against NMDA receptor-mediated neurotoxicity ([1]; in vitro, summary in words, listed as meclofenamate sodium): powerful protective effect; also recorded: neuroprotective | neuroprotection over a full concentration-toxicity curve for NMDA ([1]; meclofenamate 300 μM, FIG. 2): Complete neuroprotection | elevation of intracellular calcium produced by KCl stimulation [3]: no effect on the elevation of intracellular calcium produced by KCl stimulation | NMDA current (NMDA receptor; 300 μM, 10 min prior to NMDA (100 μM), whole-cell, FIG. 3): failed to alter the current elicited by application of NMDA | NMDA receptor antagonism (NMDA receptor; electrophysiological and radiotracer flux measurements): not an NMDA receptor antagonist | cortical infarct volume ([4]; 10 mg/kg i.p. 15 min prior to 90 min MCAO, 24 hr, control 144.8±8.8, p<0.002): 99.2±9.2 mm^3 | neuroprotection in animal model of cerebral ischemia ([4]; in vivo, summary in words): neuroprotective | formation of cyclooxygenase and lipoxygenase metabolites [5]: able to block formation of both cyclooxygenase and lipoxygenase metabolites | lipoxygenase/cyclooxygenase inhibition [6]: dual lipoxygenase/cyclooxygenase inhibitor

CC(Cc1ccc(O)c(O)c1)C(C)Cc1ccc(O)c(O)c1 (stereo not drawn) [NDGA]
activity at 30 µM ([1]; Mus musculus, compound 30 μM, NMDA 100-200 μM, mean LDH±SEM, read-out: LDH, % of control (NMDA alone=100)): 101 ± 11%

O=C1CCN(c2ccccc2)N1 [Phenidone]
activity at 300 µM [1, 7]: 58.1 ± 6.7%

CC(C)Cc1ccc(C(C)C(=O)O)cc1 (stereo not drawn) [ibuprofen]
activity at 100 µM ([1]; Mus musculus, compound 100 μM, NMDA 100-200 μM, mean LDH±SEM, asterisk = significantly different from control, read-out: LDH, % of control (NMDA alone=100)): 65.4 ± 3.5%

COc1ccc2cc([C@H](C)C(=O)O)ccc2c1 [naproxen]
activity at 300 µM [1, 7]: 82.5 ± 7.1%
